The IC50 is the concentration needed to halve the response being measured.

Molecules are shown by their SMILES.

The target of assay [1] is T1, Neuromedin-K receptor (Homo sapiens, UniProt P29371).
T1 sequence (P29371 whole entry): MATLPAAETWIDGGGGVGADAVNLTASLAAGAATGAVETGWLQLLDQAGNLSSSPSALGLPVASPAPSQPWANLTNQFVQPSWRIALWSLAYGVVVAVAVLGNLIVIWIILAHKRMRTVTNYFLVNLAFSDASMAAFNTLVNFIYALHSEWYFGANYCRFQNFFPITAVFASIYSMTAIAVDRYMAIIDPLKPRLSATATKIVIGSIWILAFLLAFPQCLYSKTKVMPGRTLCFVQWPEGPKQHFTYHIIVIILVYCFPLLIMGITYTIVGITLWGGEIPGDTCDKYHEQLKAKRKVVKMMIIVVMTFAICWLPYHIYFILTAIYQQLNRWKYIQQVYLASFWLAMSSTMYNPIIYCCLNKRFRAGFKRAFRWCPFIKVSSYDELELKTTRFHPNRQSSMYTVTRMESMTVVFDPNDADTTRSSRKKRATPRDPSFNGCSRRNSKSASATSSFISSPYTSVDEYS
Nature of the assay: Compound was evaluated for affinity towards human Neurokinin NK3 receptor.

Assay [2] addresses T2, Substance-K receptor (Homo sapiens, UniProt P21452).
T2 sequence (P21452 whole entry): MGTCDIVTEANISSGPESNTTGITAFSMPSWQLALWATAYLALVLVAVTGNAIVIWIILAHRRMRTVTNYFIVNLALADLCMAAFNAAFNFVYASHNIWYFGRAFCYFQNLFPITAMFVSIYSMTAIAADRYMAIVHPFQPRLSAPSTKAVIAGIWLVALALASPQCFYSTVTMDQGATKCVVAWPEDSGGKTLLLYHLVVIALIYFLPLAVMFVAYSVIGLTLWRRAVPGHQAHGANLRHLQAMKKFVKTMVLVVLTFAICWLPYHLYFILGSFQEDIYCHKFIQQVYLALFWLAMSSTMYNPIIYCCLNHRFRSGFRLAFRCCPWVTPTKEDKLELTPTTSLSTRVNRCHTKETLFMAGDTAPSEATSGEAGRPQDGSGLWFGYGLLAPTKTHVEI
Nature of the assay: Compound was evaluated for affinity towards human Neurokinin NK2 receptor.

Assay [3] addresses Substance-P receptor (Homo sapiens, UniProt P25103). Nature of the assay: Compound was evaluated for affinity towards human Neurokinin NK1 receptor.

Chain of Substance-P receptor (P25103 whole entry): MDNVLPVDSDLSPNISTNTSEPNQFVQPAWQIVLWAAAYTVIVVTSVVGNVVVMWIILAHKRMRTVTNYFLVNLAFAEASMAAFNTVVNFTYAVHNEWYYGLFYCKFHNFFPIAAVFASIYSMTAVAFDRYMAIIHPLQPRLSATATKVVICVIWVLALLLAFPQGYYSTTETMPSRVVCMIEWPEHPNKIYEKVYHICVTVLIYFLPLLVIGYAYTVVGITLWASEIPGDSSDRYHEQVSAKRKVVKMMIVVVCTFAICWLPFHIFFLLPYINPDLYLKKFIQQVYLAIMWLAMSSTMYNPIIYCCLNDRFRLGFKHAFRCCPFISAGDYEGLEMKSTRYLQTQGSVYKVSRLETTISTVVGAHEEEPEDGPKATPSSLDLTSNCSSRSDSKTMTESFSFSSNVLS

Regarding `O=C(c1ccccc1)N1CCCC(CCCN2CCC3(CC2)CN(c2ccccc2)NC3=O)(c2ccc(Cl)c(Cl)c2)C1` (configuration not stated), the IC50 came to 6.8 nM in assay [1], 50 nM in assay [2] and 108 nM in assay [3].

With `O=C1CCC(CCCN2CCC3(CC2)CN(c2ccccc2)NC3=O)(c2ccc(Cl)c(Cl)c2)CN1Cc1ccccc1` (configuration not stated), the IC50 in assay [1] was 127 nM; in assay [2] it was 2.5 nM; in assay [3] it was 892 nM.

Take `CS(=O)(=O)N1CC2(CCN(CCCC3(c4ccc(Cl)c(Cl)c4)CCCN(C(=O)c4ccccc4)C3)CC2)c2ccccc21` (configuration not stated): the IC50 in assay [1] stood at 1.2 nM; in assay [2], 177 nM; in assay [3], 497 nM.

In the case of `CC(=O)C1(c2ccccc2)CCN(CCCC2(c3ccc(Cl)c(Cl)c3)CCCN(C(=O)c3ccccc3)C2)CC1` (configuration not stated), the IC50 in assay [1] turned out to be 1.5 nM; in assay [2], 389 nM; in assay [3] it was 460 nM.

On to `CS(=O)(=O)N1CC2(CCN(CCCC3(c4ccc(Cl)c(Cl)c4)CCC(=O)N(Cc4ccccc4)C3)CC2)c2ccccc21` (configuration not stated), for which the IC50 was 25 nM in assay [1], 2.2 nM in assay [2] and 763 nM in assay [3].

Take `O=C(c1ccccc1)N1CCCC(CCCN2CCC(n3c(=O)[nH]c4ccccc43)CC2)(c2ccc(Cl)c(Cl)c2)C1` (configuration not stated): the IC50 is 7.9 nM in assay [1], 348 nM in assay [2] and 379 nM in assay [3].

Consider `O=C(c1ccccc1)N1CCCC(CCCN2CCC3(CCc4ccccc43)CC2)(c2ccc(Cl)c(Cl)c2)C1` (configuration not stated), for which the results for the IC50 in assay [1], in assay [2] and in assay [3] were 2.6 nM, 204 nM and 272 nM, respectively.

Regarding `O=C1CCC(CCCN2CCC(n3c(=O)[nH]c4ccccc43)CC2)(c2ccc(Cl)c(Cl)c2)CN1Cc1ccccc1` (configuration not stated), the IC50 in assay [1] came out at 539 nM; in assay [2], 6.4 nM; in assay [3], 743 nM.

Turning to `CC(=O)C1(c2ccccc2)CCN(CCCC2(c3ccc(Cl)c(Cl)c3)CCC(=O)N(Cc3ccccc3)C2)CC1` (configuration not stated), the figures for the IC50 in assay [1], in assay [2] and in assay [3] were 19 nM, 3.9 nM and 1030 nM, respectively.

The values above are taken from ChEMBL document CHEMBL1130818, “High affinity, selective neurokinin 2 and neurokinin 3 receptor antagonists from a common structural template” (Bioorg Med Chem Lett, 1998).
